According to patent US7238716B2, “Alkanoic acid derivatives process for their production and use thereof” (Takeda Pharmaceuticals Company Limited, priority 2000, dated 2007):

melting point [°C] | Compound
111 to 112 | COC(=O)Cc1cc(-c2ccccc2)ccc1OCc1ccc(OCc2nc(-c3ccccc3)oc2C)cc1 [Example 21, methyl 2-[2-[4-[(5-methyl-2-phenyl-4-oxazolyl)methoxy]benzyloxy]-5-phenylphenyl]acetate]
120 to 121 | Cc1oc(-c2ccccc2)nc1COc1cccc(CSc2cccc(CCC(=O)O)c2)c1 [Example 140, 3-[3-[3-[(5-methyl-2-phenyl-4-oxazolyl)methoxy]benzylthio]phenyl]propionic acid]
207 to 209 | Cc1oc(-c2ccccc2)nc1COc1ccc(COc2ncccc2CC(=O)[O-])cc1.[Li+]
141 to 142 | Cc1oc(-c2ccccc2)nc1COc1cncc(COc2ccc(CC(=O)O)cc2)c1 [Example 75, 2-[4-[5-[(5-methyl-2-phenyl-4-oxazolyl)methoxy]-3-pyridylmethoxy]phenyl]acetic acid]
139 to 140 | Cc1oc(-c2ccccc2)nc1COc1ccc(COc2cncc(CC(=O)O)c2)cc1 [Example 38, 2-[5-[4-[(5-methyl-2-phenyl-4-oxazolyl)methoxy]benzyloxy]-3-pyridyl]acetic acid]
194 to 195 | Cc1oc(-c2ccccc2)nc1COc1ccc(COc2ccc(O)cc2CC(=O)O)cc1 [Example 16, 2-[5-hydroxy-2-[4-[(5-methyl-2-phenyl-4-oxazolyl)methoxy]benzyloxy]phenyl]acetic acid]
104 to 105 | Cc1oc(-c2ccccc2)nc1COc1ccccc1COc1cccc(CC(=O)O)c1 [Example 34, 2-[3-[2-[(5-methyl-2-phenyl-4-oxazolyl)methoxy]benzyloxy]phenyl]acetic acid]
105 to 106 | CCOC(=O)CCc1ccc(OCc2ccc(OCc3nc(-c4ccccc4)oc3C)cc2)cc1 [Example 44, ethyl 3-[4-[4-[(5-methyl-2-phenyl-4-oxazolyl)methoxy]benzyloxy]phenyl]propionate]
90 to 91 | CCOC(=O)CCc1cccc(OCc2ccc(OCc3nc(-c4ccccc4)oc3C)cc2)c1 [Example 2, ethyl 3-[3-[4-[(5-methyl-2-phenyl-4-oxazolyl)methoxy]benzyloxy]phenyl]propionate]
145 to 146 | Cc1oc(-c2ccccc2)nc1COc1ccccc1COc1ccccc1CC(=O)O [Example 56, 2-[2-[2-[(5-methyl-2-phenyl-4-oxazolyl)methoxy]benzyloxy]phenyl]acetic acid]
136 to 137 | CCOc1ccc(OCc2cccc(OCc3nc(-c4ccccc4)oc3C)c2)cc1CCC(=O)O [Example 33, 3-[2-ethoxy-5-[3-[(5-methyl-2-phenyl-4-oxazolyl)methoxy]benzyloxy]phenyl]propionic acid]
177 to 178 | Cc1oc(-c2ccccc2)nc1COc1ccc(COc2ccc(CCC(=O)O)cc2)cc1 [Example 45, 3-[4-[4-[(5-methyl-2-phenyl-4-oxazolyl)methoxy]benzyloxy]phenyl]propionic acid]
117 to 118 | Cc1oc(-c2ccccc2)nc1COc1cccc(COc2ccccc2CC(=O)O)c1 [Example 31, 2-[2-[3-[(5-methyl-2-phenyl-4-oxazolyl)methoxy]benzyloxy]phenyl]acetic acid]
85 to 87 | CCOC(=O)C=Cc1cccnc1OCc1ccc(OCc2nc(-c3ccco3)oc2C)c(OC)c1 [Example 135, ethyl 3-[2-[4-[[2-(2-furyl)-5-methyl-4-oxazolyl]methoxy]-3-methoxybenzyloxy]-3-pyridyl]propenoate]
80 to 81 | COC(=O)Cc1cc(C)ccc1OCc1ccc(OCc2nc(-c3ccccc3)oc2C)cc1 [Example 14, methyl 2-[5-methyl-2-[4-[(5-methyl-2-phenyl-4-oxazolyl)methoxy]benzyloxy]phenyl]acetate]
77 to 78 | COC(=O)Cc1ccccc1OCc1cncc(OCc2nc(-c3ccccc3)oc2C)c1 [Example 42, methyl 2-[2-[[5-[(5-methyl-2-phenyl-4-oxazolyl)methoxy]-3-pyridyl]methoxy]phenyl]acetate]
140 to 141 | Cc1oc(-c2ccccc2)nc1COc1ccc(COc2ccc(OCc3ccccc3)cc2CC(=O)O)cc1 [Example 27, 2-[5-benzyloxy-2-[4-[(5-methyl-2-phenyl-4-oxazolyl)methoxy]benzyloxy]phenyl]acetic acid]
119 to 120 | COC(=O)Cc1ccccc1OCc1ccc(OCc2nc(-c3ccccc3)sc2C)nc1 [Example 121, methyl 2-[2-[[6-[(5-methyl-2-phenyl-4-thiazolyl)methoxy]-3-pyridyl]methoxy]phenyl]acetate]
189 to 190 | Cc1oc(-c2ccccc2)nc1/C=C/c1ccc(COc2ccccc2CC(=O)O)cc1 [Example 95, 2-[2-[4-[(E)-2-(5-methyl-2-phenyl-4-oxazolyl)ethenyl]benzyloxy]phenyl]acetic acid]
174 to 175 | Cc1oc(-c2ccccc2)nc1COc1ccc(COc2ncccc2C=CC(=O)O)cc1 [Example 134, 3-[2-[4-[(5-methyl-2-phenyl-4-oxazolyl)methoxy]benzyloxy]-3-pyridyl]propenoic acid]
166 to 167 | Cc1oc(-c2ccccc2)nc1COc1ccc(COc2ccc(CC(=O)O)cc2)cc1 [Example 9, 2-[4-[4-[(5-methyl-2-phenyl-4-oxazolyl)methoxy]benzyloxy]phenyl]acetic acid]

Second part, the molecule before the results:

Compound | melting point [°C]
COC(=O)Cc1cccc(OCc2ccc(OC)c(OCc3nc(-c4ccccc4)oc3C)c2)c1 [Example 131, methyl 3-[4-methoxy-3-[(2-phenyl-5-methyl-4-oxazolyl)methoxy]benzyloxy]phenylacetate] | 88 to 89
Cc1oc(-c2ccccc2)nc1COc1ccc(COc2ccc(Br)cc2CC(=O)O)cc1 [Example 20, 2-[5-bromo-2-[4-[(5-methyl-2-phenyl-4-oxazolyl)methoxy]benzyloxy]phenyl]acetic acid] | 162 to 163
Cc1oc(-c2ccccc2)nc1COc1ccc(COc2ccccc2CCC(=O)O)cc1 [Example 13, 3-[2-[4-[(5-methyl-2-phenyl-4-oxazolyl)methoxy]benzyloxy]phenyl]propionic acid] | 98 to 99
Cc1oc(-c2ccccc2)nc1COc1ccc(COc2ccc(-c3ccccc3)cc2CC(=O)O)cc1 [Example 22, 2-[2-[4-[(5-methyl-2-phenyl-4-oxazolyl)methoxy]benzyloxy]-5-phenylphenyl]acetic acid] | 102 to 103
Cc1oc(-c2ccccc2)nc1COc1ccc(COc2ccc3ccccc3c2CCC(=O)O)cc1 [Example 47, 3-[2-[4-[(5-methyl-2-phenyl-4-oxazolyl)methoxy]benzyloxy]-1-naphthyl]propionic acid] | 161 to 162
Cc1oc(-c2ccccc2)nc1CCc1nc(COc2cccc(CC(=O)O)c2)cs1 [Example 105, 2-[3-[[2-[2-(5-methyl-2-phenyl-4-oxazolyl)ethyl]-4-thiazolyl]methoxy]phenyl]acetic acid] | 153 to 154
Cc1oc(-c2ccccc2)nc1CCc1noc(COc2cccc(CC(=O)O)c2)n1 [Example 109, 2-[3-[[3-[2-(5-methyl-2-phenyl-4-oxazolyl)ethyl]-1,2,4-oxadiazol-5-yl]methoxy]phenyl]acetic acid] | 93 to 94
COC(=O)Cc1ccccc1OCc1ccc(N(Cc2nc(-c3ccccc3)oc2C)C(=O)OC(C)(C)C)cc1 [Example 59, methyl 2-[2-[4-[(t-butoxycarbonyl)[(5-methyl-2-phenyl-4-oxazolyl)methyl]amino]benzyloxy]phenyl]acetate] | 85 to 86
Cc1oc(-c2ccccc2)nc1COc1cccc(COc2cccc(CC(=O)O)c2)n1 [Example 64, 2-[3-[[6-[(5-methyl-2-phenyl-4-oxazolyl)methoxy]-2-pyridyl]methoxy]phenyl]acetic acid] | 97 to 98
Cc1oc(-c2ccccc2)nc1CCOc1ccc(COc2ncccc2CC(=O)O)cc1 [Example 111, 2-[2-[4-[2-(5-methyl-2-phenyl-4-oxazolyl)ethoxy]benzyloxy]-3-pyridyl]acetic acid] | 134 to 135
CCOC(=O)C=Cc1c(OCc2ccc(OCc3nc(-c4ccccc4)oc3C)cc2)ccc2ccccc12 [Example 54, ethyl 3-(2-(4-((5-methyl-2-phenyl-4-oxazolyl)methoxy)benzyloxy)-1-naphthyl)-2-propenoate] | 73 to 74
Cc1oc(-c2ccccc2)nc1COc1ccc(CSc2ccc(CCC(=O)O)cc2)cc1 [Example 67, 3-[4-[[4-[(5-methyl-2-phenyl-4-oxazolyl)methoxy]benzyl]sulfanyl]phenyl]propionic acid] | 157 to 158
Cc1oc(-c2ccccc2)nc1COc1cccc(COc2cncc(CC(=O)O)c2)c1 [Example 76, 2-[5-[3-[(5-methyl-2-phenyl-4-oxazolyl)methoxy]benzyloxy]-3-pyridyl]acetic acid] | 158 to 159
COC(=O)Cc1ccc(OCc2ccc(OCc3nc(-c4ccccc4)oc3C)cc2)cc1 [Example 8, methyl 2-[4-[4-[(5-methyl-2-phenyl-4-oxazolyl)methoxy]benzyloxy]phenyl]acetate] | 93 to 94
Cc1oc(-c2ccccc2)nc1COc1ccc(COC(=O)Cc2cccc(OCc3ccc(OCc4nc(-c5ccccc5)oc4C)cc3)c2)cc1 [Example 53, 4-[(5-methyl-2-phenyl-4-oxazolyl)methoxy]benzyl 2-[3-[4-[(5-methyl-2-phenyl-4-oxazolyl)methoxy]benzyloxy]phenyl]acetate] | 90 to 91
Cc1oc(-c2ccccc2)nc1COc1cccc(CSc2cccc(CC(=O)O)c2)c1 [Example 139, 2-[3-[3-[(5-methyl-2-phenyl-4-oxazolyl)methoxy]benzylthio]phenyl]acetic acid] | 81 to 82
COC(=O)Cc1ccccc1OCc1cc(OCc2nc(-c3ccccc3)sc2C)no1 [Example 113, methyl 2-[2-[[3-[(5-methyl-2-phenyl-4-thiazolyl)methoxy]-5-isoxazolyl]methoxy]phenyl]acetate] | 108 to 109
Cc1oc(-c2ccccc2)nc1COc1ccc(COc2cccc(CCC(=O)O)c2)cc1 [Example 3, 3-[3-[4-[(5-methyl-2-phenyl-4-oxazolyl)methoxy]benzyloxy]phenyl]propionic acid] | 157 to 158
